According to patent US9878007B2, “Syndecan peptides and polypeptides as inhibitors of vascular endothelial growth factor receptor-2 (VEGFR2) and very late antigen-4 (VLA-4)” (Wisconsin Alumni Research Foundation, priority 2015, dated 2018):
No end group written: not given here.

Tests used:
HMEC-1 cells [1] = assay: Transwell migration / invasion assay of HMEC-1 cells; type: cell-based; settings: 16 hr
Procedure: FIGS. 8A-H. HPSE mediated the Sdc1-coupled VEGFR2 complex in endothelial cells induces angiogenesis. (FIG. 8A) Lysates from HPSE^low, HPSE^high and HMEC-1 cells are probed by immunoblotting for expression of HPSE. (FIG. 8B) HMEC-1 cells were seeded at equal density and grown in serum-free media for 24 hr in the absence or presence of 125 μg/ml of the HPSE inhibitor SST0001. After 24 hr, conditioned media were harvested, and the level of shed Sdc1 in the conditioned medium from each condition was determined by immunoblotting. (FIG. 8C) HMEC-1 cell lysate was incubated overnight with glutathione beads coated with GST or GST-S1ED. Capture of VLA-4 or VEGFR2 was detected by immunoblotting. (FIG. 8D) HMEC-1 cells were plated on IIICS for 3 hr and double stained for VLA-4 and Sdc1, VEGFR2 and Sdc1, or VLA-4 and VEGFR2. (FIG. 8E) HMEC-1 cells were treated with DMSO, VLA-4 blocking antibody P1H4, β1-integrin blocking antibody mAb13, 10 μg/ml MMP9 blocking antibody, 125 μg/ml HPSE inhibitor SST0001, Vandetanib, VEGFR2 blocking antibody, 30 μM S1ED^210-233 or 30 μM S1ED^214-240 and then plated on IIICS. Images were taken from random field with 200× magnification for counting attached and spread cells. (FIG. 8F) HMEC-1 cells were plated on IIICS in the presence of 10 μM of S1ED^210-236, S1ED^210-233, S1ED^215-240, and S1ED^214-240. Lysates were probed on immunoblots with antibodies against pY^1175 VEGFR2 and VEGFR2. (FIG. 8G) Transwell migration assays towards IIICS (for 16 hr) were performed for HMEC-1 cells in the presence of P1H4, SST0001, Anti-MMP9, Vandetanib, S1ED^210-236, S1ED^210-233, and S1ED^214-240. Images were taken from random field with 200× magnification for counting migrated cells. (FIG. 8H) A 96-well plate coated with 50 μl Matrigel containing 100 μg/ml IIICS per well was solidified at 37° C. for 2 hrs. […]
The bottom chambers of Transwell filter chambers (8 μm pores; Corning) were coated with 40 μg/ml of FN. […] Cells from at least five random fields were counted.

VEGFR2 = molecular target: T1, VEGFR2 (Homo sapiens, UniProt P35968); assay: GST pull down assay: capture of VEGFR2 by GST-S1ED; type: binding; settings: HPSE^low cell lysates; peptide 30 M [sic]
T1 construct: endogenous in cells; host or cells: CAG human myeloma cells (HPSE^low = empty vector; HPSE^high = human HPSE cDNA)
T1 sequence (P35968 20-1356): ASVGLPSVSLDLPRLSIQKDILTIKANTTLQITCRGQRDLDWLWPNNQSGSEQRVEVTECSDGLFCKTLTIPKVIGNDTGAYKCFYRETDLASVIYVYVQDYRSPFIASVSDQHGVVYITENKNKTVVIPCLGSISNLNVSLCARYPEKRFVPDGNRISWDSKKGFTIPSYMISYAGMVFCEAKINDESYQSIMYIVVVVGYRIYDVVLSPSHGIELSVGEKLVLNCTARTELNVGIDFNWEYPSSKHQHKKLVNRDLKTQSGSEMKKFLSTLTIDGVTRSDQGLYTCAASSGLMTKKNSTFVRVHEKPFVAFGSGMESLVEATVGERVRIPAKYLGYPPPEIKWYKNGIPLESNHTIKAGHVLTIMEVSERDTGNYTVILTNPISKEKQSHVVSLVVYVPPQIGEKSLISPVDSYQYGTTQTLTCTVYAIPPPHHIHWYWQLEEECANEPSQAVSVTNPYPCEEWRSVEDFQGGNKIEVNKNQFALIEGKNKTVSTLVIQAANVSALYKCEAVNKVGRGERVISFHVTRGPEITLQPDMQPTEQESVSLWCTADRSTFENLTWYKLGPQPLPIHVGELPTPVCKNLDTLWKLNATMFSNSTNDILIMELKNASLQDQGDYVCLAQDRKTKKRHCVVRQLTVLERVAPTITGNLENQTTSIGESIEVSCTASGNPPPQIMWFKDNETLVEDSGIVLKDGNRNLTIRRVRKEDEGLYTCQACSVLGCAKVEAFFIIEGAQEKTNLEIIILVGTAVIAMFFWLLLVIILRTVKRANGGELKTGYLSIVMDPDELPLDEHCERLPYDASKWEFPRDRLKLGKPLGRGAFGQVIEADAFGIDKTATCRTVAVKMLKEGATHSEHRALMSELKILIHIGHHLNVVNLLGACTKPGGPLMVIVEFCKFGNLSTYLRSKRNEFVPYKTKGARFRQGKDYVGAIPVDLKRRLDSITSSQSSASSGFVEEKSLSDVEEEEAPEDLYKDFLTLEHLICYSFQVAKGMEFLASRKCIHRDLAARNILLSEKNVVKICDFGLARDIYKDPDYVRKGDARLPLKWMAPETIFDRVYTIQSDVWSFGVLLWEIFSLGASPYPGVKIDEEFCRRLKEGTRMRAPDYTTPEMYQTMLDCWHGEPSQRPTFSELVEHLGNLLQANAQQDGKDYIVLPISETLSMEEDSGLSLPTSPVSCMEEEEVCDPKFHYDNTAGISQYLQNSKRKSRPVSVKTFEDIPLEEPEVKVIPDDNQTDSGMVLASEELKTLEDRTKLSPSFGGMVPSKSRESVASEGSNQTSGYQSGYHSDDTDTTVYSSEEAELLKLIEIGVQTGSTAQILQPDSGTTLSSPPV
Procedure: FIGS. 6A-G. Peptides derived from the active site in Sdc1 activate or inhibit adhesion and invasion. (FIG. 6A) Transwell migration assays towards FN (for 16 hrs) were performed for HPSE low or high cells in the presence of 0, 0.3, 3, and 30 μM of S1ED^210-240. Cells migrating to the bottom side of the filter were counted from five random images for each treatment. (FIG. 6B) The sequence of S1ED210-240 is shown (SEQ ID NO: 3), as well as […] truncation mutants of the peptide (SEQ ID NOs: 5, 2, 4 and 7). Amino acids shown in red appear necessary for the spreading and invasive activity. (FIG. 6C) Images of HPSE^low and HPSE^high cells plated on FN for 2 hr. (FIG. 6D) HPSE^low cells were treated with 0, 0.3, 3, 10 and 30 μM of S1ED^210-236, S1ED^210-233, or S1ED^214-240, plated on FN for 2 hr, fixed and stained with fluorescent phalloidin. Cells from five random images were quantified for cell attachment and cell spreading. (FIG. 6E) HPSE^high cells were treated with 0, 3, 10, and 30 μM of S1ED^210-236, S1ED^210-233, and S1ED^214-240, plated on FN for 2 hr, then fixed, imaged and quantified as in FIG. 6D. (FIG. 6F) Transwell migration assays towards FN (for 16 hr) were performed for HPSE^low or HPSE^high cells in the presence of 30 μM of S1ED^210-236, S1ED^210-233, S1ED^214-240 and Vandetanib. (FIG. 6G) HPSE^low cell lysates were incubated overnight with glutathione beads coated with GST or GST-S1ED in the absence or presence of 30 μM of S1ED^210-236, S1ED^210-233, and S1ED^214-240. Capture of VLA-4 or VEGFR2 was detected by immunoblotting. Sequences in FIG. 6B are 210-240 (SEQ ID NO: 3), 210-236 (SEQ ID NO: 2), 210-233 (SEQ ID NO: 4), 214-240 (SEQ ID NO: 5) and 214-236 (SEQ ID NO: 7).
CAG cells were washed with CMF-PBS and then lysed for 20 min on ice in lysis buffer. Cell debris was removed by centrifugation at 13000 rpm for 20 min at 4° C. Whole cell lysates were then incubated at 4° C. overnight with either 3 μM GST or 3 μM GST-S1ED in the absence or presence of 1 μM, 3 μM, and 10 μM S1ED^210-240 peptide. GST or GST-S1ED was captured by addition of glutathione Sepharose and the beads were washed with ice-cold lysis buffer and CMF-PBS, prior to addition of SDS-PAGE sample buffer and analyszed by electrophoresis and western blotting as described previously.

HMEC-1 cells [2] = assay: In vitro tube formation assay of HMEC-1 cells on Matrigel; type: cell-based; settings: 24 hrs, 10 μM peptides
Procedure: FIGS. 8A-H. HPSE mediated the Sdc1-coupled VEGFR2 complex in endothelial cells induces angiogenesis. (FIG. 8A) Lysates from HPSE^low, HPSE^high and HMEC-1 cells are probed by immunoblotting for expression of HPSE. (FIG. 8B) HMEC-1 cells were seeded at equal density and grown in serum-free media for 24 hr in the absence or presence of 125 μg/ml of the HPSE inhibitor SST0001. After 24 hr, conditioned media were harvested, and the level of shed Sdc1 in the conditioned medium from each condition was determined by immunoblotting. (FIG. 8C) HMEC-1 cell lysate was incubated overnight with glutathione beads coated with GST or GST-S1ED. Capture of VLA-4 or VEGFR2 was detected by immunoblotting. (FIG. 8D) HMEC-1 cells were plated on IIICS for 3 hr and double stained for VLA-4 and Sdc1, VEGFR2 and Sdc1, or VLA-4 and VEGFR2. (FIG. 8E) HMEC-1 cells were treated with DMSO, VLA-4 blocking antibody P1H4, β1-integrin blocking antibody mAb13, 10 μg/ml MMP9 blocking antibody, 125 μg/ml HPSE inhibitor SST0001, Vandetanib, VEGFR2 blocking antibody, 30 μM S1ED^210-233 or 30 μM S1ED^214-240 and then plated on IIICS. Images were taken from random field with 200× magnification for counting attached and spread cells. (FIG. 8F) HMEC-1 cells were plated on IIICS in the presence of 10 μM of S1ED^210-236, S1ED^210-233, S1ED^215-240, and S1ED^214-240. Lysates were probed on immunoblots with antibodies against pY^1175 VEGFR2 and VEGFR2. (FIG. 8G) Transwell migration assays towards IIICS (for 16 hr) were performed for HMEC-1 cells in the presence of P1H4, SST0001, Anti-MMP9, Vandetanib, S1ED^210-236, S1ED^210-233, and S1ED^214-240. Images were taken from random field with 200× magnification for counting migrated cells. (FIG. 8H) A 96-well plate coated with 50 μl Matrigel containing 100 μg/ml IIICS per well was solidified at 37° C. for 2 hrs. HMEC-1 cells (2.5×10^4 cells/well) were seeded into the plate and cultured in media containing VEGF, SST0001, 10 μM of S1ED^210-236, S1ED^210-233, S1ED^215-240, and S1ED^214-240 for 24 hrs. Enclosed capillary networks of tubes were taken from random field with 200× magnification.

Substance | invasion of HMEC-1 cells (HMEC-1 cells [1]) | competition for capture of VEGFR2 by GST-S1ED (VEGFR2) | tube formation by HMEC-1 cells (HMEC-1 cells [2])
S1ED^210-233: syndecan-1 ectodomain peptide, residues 210-233 (SEQ ID NO: 4) (DFTFETSGENTAVVAVEPDRRNQS) | all block invasion | competes for capture of VEGFR2 | blocks tube formation
DFTFETSGENTAVVAVEPDRRNQSPVD [S1ED^210-236] | all block invasion | effectively blocks capture of both receptors | blocks tube formation
